Test results reported in paper PMC6773804, “Mapping of a Regulatory Site of the Escherichia coli ADP-Glucose Pyrophosphorylase” (Frontiers in Molecular Biosciences, 2019).
Like-named read-outs stand apart in the source and are kept apart here.

Assays:
[1] = target: T1, E. coli ADP-glucose pyrophosphorylase (ADP-Glc PPase) (Escherichia coli, UniProt P0A6V1); assay: ADP-glucose synthesis, colorimetric phosphate detection after pyrophosphatase; type: biochemical
T1 construct: gene glgC
T1 sequence (P0A6V1 1-431): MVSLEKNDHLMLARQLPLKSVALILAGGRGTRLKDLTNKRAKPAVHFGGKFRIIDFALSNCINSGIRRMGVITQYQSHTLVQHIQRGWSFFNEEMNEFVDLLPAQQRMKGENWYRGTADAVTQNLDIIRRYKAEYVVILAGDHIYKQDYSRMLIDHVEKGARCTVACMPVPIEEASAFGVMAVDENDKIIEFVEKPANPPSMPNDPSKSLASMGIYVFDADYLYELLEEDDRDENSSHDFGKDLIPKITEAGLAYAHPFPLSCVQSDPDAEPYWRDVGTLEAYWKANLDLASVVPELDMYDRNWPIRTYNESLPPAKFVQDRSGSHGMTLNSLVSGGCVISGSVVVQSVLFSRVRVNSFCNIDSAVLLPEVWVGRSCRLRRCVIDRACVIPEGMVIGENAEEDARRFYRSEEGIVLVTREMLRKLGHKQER
Text: (§1) ADP-glucose synthesis, colorimetric phosphate detection after pyrophosphatase on E. coli ADP-glucose pyrophosphorylase (ADP-Glc PPase)

[2] = target: T2, E. coli ADP-glucose pyrophosphorylase (ADP-Glc PPase) (Escherichia coli, UniProt P0A6V1, R419A); assay: as above; type: biochemical
T2 construct: gene glgC
T2 sequence (P0A6V1 1-431 R419A): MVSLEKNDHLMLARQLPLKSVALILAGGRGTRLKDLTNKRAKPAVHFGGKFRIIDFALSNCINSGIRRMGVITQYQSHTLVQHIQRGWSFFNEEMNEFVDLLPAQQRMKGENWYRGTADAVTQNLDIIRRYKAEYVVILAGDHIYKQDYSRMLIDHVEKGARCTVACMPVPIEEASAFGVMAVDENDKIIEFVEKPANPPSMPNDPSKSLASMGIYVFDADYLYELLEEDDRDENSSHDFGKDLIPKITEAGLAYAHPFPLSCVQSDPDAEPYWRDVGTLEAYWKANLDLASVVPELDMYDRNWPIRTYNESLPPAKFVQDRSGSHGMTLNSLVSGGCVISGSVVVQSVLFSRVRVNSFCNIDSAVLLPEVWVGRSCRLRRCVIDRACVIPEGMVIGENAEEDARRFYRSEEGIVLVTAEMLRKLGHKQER
Text: as §1

[3] = target: T3, E. coli ADP-glucose pyrophosphorylase (ADP-Glc PPase) (Escherichia coli, UniProt P0A6V1, R130A); assay: as above; type: biochemical
T3 construct: gene glgC
T3 sequence (P0A6V1 1-431 R130A): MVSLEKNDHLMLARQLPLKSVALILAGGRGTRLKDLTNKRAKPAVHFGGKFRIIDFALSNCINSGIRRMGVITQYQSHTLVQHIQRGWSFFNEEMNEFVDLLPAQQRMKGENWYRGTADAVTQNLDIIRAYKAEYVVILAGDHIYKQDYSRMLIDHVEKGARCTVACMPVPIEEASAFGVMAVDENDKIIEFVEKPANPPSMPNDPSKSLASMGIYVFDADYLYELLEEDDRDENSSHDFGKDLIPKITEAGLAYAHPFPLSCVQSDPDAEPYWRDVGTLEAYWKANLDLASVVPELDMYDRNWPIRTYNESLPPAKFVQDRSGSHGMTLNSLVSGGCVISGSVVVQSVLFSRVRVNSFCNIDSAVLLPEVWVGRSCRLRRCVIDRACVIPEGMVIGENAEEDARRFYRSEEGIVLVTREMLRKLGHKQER
Text: as §1

[4] = target: T4, E. coli ADP-glucose pyrophosphorylase (ADP-Glc PPase) (Escherichia coli, UniProt P0A6V1, R386A); assay: as above; type: biochemical
T4 construct: gene glgC
T4 sequence (P0A6V1 1-431 R386A): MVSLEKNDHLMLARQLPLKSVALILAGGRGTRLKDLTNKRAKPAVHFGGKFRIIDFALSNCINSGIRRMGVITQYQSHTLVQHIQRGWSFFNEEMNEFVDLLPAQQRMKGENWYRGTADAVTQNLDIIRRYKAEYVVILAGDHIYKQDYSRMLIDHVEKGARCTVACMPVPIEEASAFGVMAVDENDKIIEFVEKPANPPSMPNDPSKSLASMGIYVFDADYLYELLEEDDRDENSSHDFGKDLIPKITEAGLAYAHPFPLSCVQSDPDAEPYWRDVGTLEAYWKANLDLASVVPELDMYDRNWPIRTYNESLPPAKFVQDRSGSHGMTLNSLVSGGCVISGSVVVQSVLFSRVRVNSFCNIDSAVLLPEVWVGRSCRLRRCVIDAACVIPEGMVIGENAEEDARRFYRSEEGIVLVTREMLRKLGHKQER
Text: as §1

[5] = target: T5, E. coli ADP-glucose pyrophosphorylase (ADP-Glc PPase) (Escherichia coli, UniProt P0A6V1, R353A); assay: as above; type: biochemical
T5 construct: gene glgC
T5 sequence (P0A6V1 1-431 R353A): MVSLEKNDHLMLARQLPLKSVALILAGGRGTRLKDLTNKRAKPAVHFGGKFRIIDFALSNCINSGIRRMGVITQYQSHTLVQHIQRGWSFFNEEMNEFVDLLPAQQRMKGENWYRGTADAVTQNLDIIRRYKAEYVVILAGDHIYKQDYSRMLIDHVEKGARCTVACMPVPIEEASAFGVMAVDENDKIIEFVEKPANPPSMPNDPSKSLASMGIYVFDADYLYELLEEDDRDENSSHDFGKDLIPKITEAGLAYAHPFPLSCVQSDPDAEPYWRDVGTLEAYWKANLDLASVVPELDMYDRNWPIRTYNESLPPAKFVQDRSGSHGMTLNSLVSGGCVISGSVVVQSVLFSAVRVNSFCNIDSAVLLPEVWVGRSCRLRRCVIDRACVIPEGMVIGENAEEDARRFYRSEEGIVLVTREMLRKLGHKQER
Text: as §1

[6] = target: T6, E. coli ADP-glucose pyrophosphorylase (ADP-Glc PPase) (Escherichia coli, UniProt P0A6V1, R423A); assay: as above; type: biochemical
T6 construct: gene glgC
T6 sequence (P0A6V1 1-431 R423A): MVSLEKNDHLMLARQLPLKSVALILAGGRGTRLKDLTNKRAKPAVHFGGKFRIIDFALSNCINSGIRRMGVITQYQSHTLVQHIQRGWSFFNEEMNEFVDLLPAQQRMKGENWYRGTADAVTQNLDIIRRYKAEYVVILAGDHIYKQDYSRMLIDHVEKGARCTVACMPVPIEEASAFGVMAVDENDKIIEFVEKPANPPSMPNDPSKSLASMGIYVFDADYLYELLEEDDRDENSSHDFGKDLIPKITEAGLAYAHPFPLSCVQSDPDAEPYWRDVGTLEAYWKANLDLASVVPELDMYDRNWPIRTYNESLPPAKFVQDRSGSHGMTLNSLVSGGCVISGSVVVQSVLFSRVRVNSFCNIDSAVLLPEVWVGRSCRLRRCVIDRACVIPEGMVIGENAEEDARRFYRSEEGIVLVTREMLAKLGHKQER
Text: as §1

[7] = target: T1, E. coli ADP-glucose pyrophosphorylase (ADP-Glc PPase); assay: thermal shift assay, SYPRO Orange; type: binding; conditions: read-out: dTm at 1 mM
[8] = target: T7, E. coli ADP-glucose pyrophosphorylase (ADP-Glc PPase) (Escherichia coli, UniProt P0A6V1, R52K); assay: ADP-glucose synthesis, colorimetric phosphate detection after pyrophosphatase; type: biochemical; conditions: read-out: PLP / A0.5 /
T7 construct: gene glgC
T7 sequence (P0A6V1 1-431 R52K): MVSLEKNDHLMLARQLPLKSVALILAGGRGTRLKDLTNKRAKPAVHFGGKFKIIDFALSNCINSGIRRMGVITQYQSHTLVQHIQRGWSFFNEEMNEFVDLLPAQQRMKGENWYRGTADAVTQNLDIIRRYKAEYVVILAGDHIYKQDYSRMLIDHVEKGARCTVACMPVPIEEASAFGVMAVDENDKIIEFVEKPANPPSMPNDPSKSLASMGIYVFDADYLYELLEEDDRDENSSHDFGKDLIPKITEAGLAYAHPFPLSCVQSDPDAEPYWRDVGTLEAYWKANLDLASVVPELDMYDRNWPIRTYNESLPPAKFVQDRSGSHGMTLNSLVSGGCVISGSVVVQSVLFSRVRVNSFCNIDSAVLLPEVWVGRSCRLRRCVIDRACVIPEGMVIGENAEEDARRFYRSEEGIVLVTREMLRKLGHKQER
Text: as §1

[9] = target: T8, E. coli ADP-glucose pyrophosphorylase (ADP-Glc PPase) (Escherichia coli, UniProt P0A6V1, R40A); assay: as above; type: biochemical; conditions: read-out: PLP / A0.5 /
T8 construct: gene glgC
T8 sequence (P0A6V1 1-431 R40A): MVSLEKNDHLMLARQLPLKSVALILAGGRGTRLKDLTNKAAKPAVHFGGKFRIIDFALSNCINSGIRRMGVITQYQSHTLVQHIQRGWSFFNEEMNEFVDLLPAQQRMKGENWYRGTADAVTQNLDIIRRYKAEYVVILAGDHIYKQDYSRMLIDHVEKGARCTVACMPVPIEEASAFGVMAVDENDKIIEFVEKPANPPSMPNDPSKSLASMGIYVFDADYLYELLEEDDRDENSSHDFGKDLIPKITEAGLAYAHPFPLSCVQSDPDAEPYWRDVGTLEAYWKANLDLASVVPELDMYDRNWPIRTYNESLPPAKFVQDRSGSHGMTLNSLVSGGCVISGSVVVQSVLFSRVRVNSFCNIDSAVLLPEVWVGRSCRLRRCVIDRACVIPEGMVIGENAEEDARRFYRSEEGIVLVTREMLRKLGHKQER
Text: as §1

[10] = substrate: Nc1ncnc2c1ncn2[C@@H]1O[C@H](COP(=O)(O)OP(=O)(O)OP(=O)(O)O)[C@@H](O)[C@H]1O; assay: as above; type: biochemical, Escherichia coli; conditions: no activator (control), 1 mM Glc1P, 10 mM MgCl2, 50 mM HEPES pH 8.0
Method: One was measured in absence (control)

[11] = activator, allosteric, 1.0 mM Glc1P, 1.5 mM ATP, 10 mM MgCl2, pH 8.0, read-out: FBP / A0.5 /

`O=P(O)(O)OC[C@H]1OC(O)(COP(=O)(O)O)[C@@H](O)[C@@H]1O` (stereo partly shown) [FBP] gave an EC50 [1, 11] of 27 ± 9 µM, an EC50 [2, 11] of 36 ± 11 µM and an EC50 [3, 11] of 67 ± 10 µM. The EC50 [4, 11] was 1000 ± 130 µM, the EC50 [5, 11] was 40 ± 10 µM and the EC50 [6, 11] was 320 ± 50 µM. For the same molecule, the ΔTm at 1000 µM [7] was 13.2 °C.

`Cc1ncc(COP(=O)(O)O)c(C=O)c1O` [PLP] was tested, and the EC50 ([1]; read-out: PLP / A0.5 /) was 0.075 ± 0.004 µM, the EC50 [8] was 0.22 ± 0.05 µM and the EC50 ([2]; read-out: PLP / A0.5 /) was 0.019 ± 0.005 µM. The EC50 [9] was 0.48 ± 0.22 µM, the EC50 ([3]; read-out: PLP / A0.5 /) was 1.29 ± 0.23 µM and the EC50 ([4]; read-out: PLP / A0.5 /) was 4.2 ± 0.6 µM. It also gave an EC50 ([5]; read-out: PLP / A0.5 /) of 0.16 ± 0.01 µM and an EC50 ([6]; read-out: PLP / A0.5 /) of 0.21 ± 0.01 µM.

B1: E. coli ADP-glucose pyrophosphorylase (ADP-Glc PPase) (Escherichia coli K-12) (protein)
chain: MVSLEKNDHLMLARQLPLKSVALILAGGRGTRLKDLTNKRAKPAVHFGGKFRIIDFALSNCINSGIRRMGVITQYQSHTLVQHIQRGWSFFNEEMNEFVDLLPAQQRMKGENWYRGTADAVTQNLDIIRRYKAEYVVILAGDHIYKQDYSRMLIDHVEKGARCTVACMPVPIEEASAFGVMAVDENDKIIEFVEKPANPPSMPNDPSKSLASMGIYVFDADYLYELLEEDDRDENSSHDFGKDLIPKITEAGLAYAHPFPLSCVQSDPDAEPYWRDVGTLEAYWKANLDLASVVPELDMYDRNWPIRTYNESLPPAKFVQDRSGSHGMTLNSLVSGGCVISGSVVVQSVLFSRVRVNSFCNIDSAVLLPEVWVGRSCRLRRCVIDRACVIPEGMVIGENAEEDARRFYRSEEGIVLVTREMLRKLGHKQER
In the case of B1, the K0.5 [10] is reported as 1.75 ± 0.09 mM.
